Source: patent publication US20240025918A1, “KRAS G12D Inhibitors” (Jacobio Pharmaceuticals Co., Ltd, priority 2020, published 2024)

Tests used:
[1] = system: AGS; assay: Cell growth inhibition assay, AGS (CellTiter-Glo); format: cell-based; settings: Homo sapiens, 144 h; AGS cell viability, 6 days incubation
Procedure: AGS cultured in F12K medium (Gibco) containing 10% fetal bovine serum (Gibco). Cells in culture medium were plated in 96-well plates at a concentration of 500 cells/well (100 μL/well) and allowed to attach overnight.
(§1) The next day, compounds were diluted in culture medium and added to the plates. After 6 days incubation in a 37° C./5% CO2 cell incubator, the cell viability was detected by CellTiter-Glo® Luminescent Cell Viability Assay kit (Promega). Luminescent signals were read on Tecan Spark multimode microplate reader and analyzed using a 4-parameter logistic model to calculate IC50 values.

[2] = system: AGS cells expressing KRAS G12D; assay: Phospho-ERK1/2(THR202/TYR204) HTRF assay; format: cell-based; settings: Homo sapiens; Phospho-ERK1/2 in AGS cells, 2 hours incubation
Procedure: AGS cells expressing KRAS G12D were cultured in F12K medium (Gibco) containing 10% fetal bovine serum (Gibco). The AGS cells in culture medium were seeded in 96-well plates at a concentration of 40,000 cells/well and then put in a 37° C./5% CO2 cell incubator to incubate overnight. The next day, culture medium was removed and the compound diluted in assay medium (F12K, 0.1% FBS) was added in each well. After 2 hours incubation in a 37° C./5% CO2 cell incubator, the assay medium in 96-well plates was removed, then 50 μL of 1× blocking reagent-supplemented lysis buffer (Cisbio) was added and the plates were incubated at 25° C. for 45 min with shaking. 10 μL of cell lysates from the 96-well plates were transferred to a 384-well plate (Greiner) containing 2.5 μL/well HTRF® pre-mixed antibodies (Cisbio 64AERPEH). Incubate 4 hours at 25° C. and then read HTRF signals on Tecan Spark multimode microplate reader. The data were analyzed using a 4-parameter logistic model to calculate IC50 values.

[3] = system: AsPC-1; assay: Cell growth inhibition assay, AsPC-1 (CellTiter-Glo); format: cell-based; settings: Homo sapiens, ASPC1, 144 h; AsPC-1 cell viability, 6 days incubation
Procedure: AsPC-1 cultured in RPMI-1640 medium (Gibco) containing 10% fetal bovine serum (Gibco). Cells in culture medium were plated in 96-well plates at a concentration of 1000 cells/well (100 μL/well) and allowed to attach overnight.
as §1

[4] = biological target: T1, GppNp-loaded HIS-KRAS(G12D, aa 1-169) and cRAF RBD (Homo sapiens, UniProt P01116, G12D); assay: GTP-KRAS and cRAF interaction assay (HTRF); format: biochemical; settings: 2 hours at 25° C.
T1 construct: GppNp-loaded HIS-KRAS(G12D, aa 1-169)
T1 sequence (P01116 1-169 isoform P01116-2 G12D): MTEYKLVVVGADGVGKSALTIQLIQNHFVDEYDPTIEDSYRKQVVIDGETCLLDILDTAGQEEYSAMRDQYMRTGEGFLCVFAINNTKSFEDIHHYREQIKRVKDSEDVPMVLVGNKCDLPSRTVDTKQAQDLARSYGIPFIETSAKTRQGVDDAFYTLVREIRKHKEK
Procedure: GppNp-loaded HIS-KRAS(G12D, aa 1-169) was pre-incubated with a compound in the presence of 200 μM GTP in a 384-well plate (Greiner) for 15 min, then cRAF RBD(GST tag, aa 50-132, CreativeBioMart), MAb Anti GST-d2 (Cisbio) and MAb Anti 6HIS-Tb cryptate Gold (Cisbio) were added to the assay wells (Final concentration: 2.0 nM GppNp-loaded HIS-KRAS(G12D), 100 μM GTP, 35 nM cRAF RBD, 1 μg/mL MAb Anti GST-d2, 52.5 ng/mL MAb Anti 6HIS-Tb cryptate Gold) and incubated for 2 hours at 25° C. Wells containing same percent of DMSO served as vehicle control, and wells without KRAS served as low control. HTRF signals were read on Tecan Spark multimode microplate reader and HTRF ratios were calculated under manufacturer's instructions. The percent of activation of compounds treated wells were normalized between vehicle control and low control (% Activation=(HTRF ratioCompound treated−HTRF ratioLow control)/(HTRF ratioVehicle control−HTRF ratioLow control)*100%). Then the data were analyzed by fitting a 4-parameter logistic model or calculating in Excel to calculate IC50 values.

[5] = biological target: T2, GDP-loaded HIS-KRAS(G12D, aa 1-169) (Homo sapiens, UniProt P01116, G12D); assay: SOS1 catalyzed nucleotide exchange assay (TR-FRET); format: biochemical; settings: 4 hours at 25° C.
T2 construct: GDP-loaded HIS-KRAS(G12D, aa 1-169)
T2 sequence (P01116 1-169 isoform P01116-2 G12D): as above
Procedure: GDP-loaded HIS-KRAS(G12D, aa 1-169) was pre-incubated with a compound in the presence of 10 nM GDPin a 384-well plate (Greiner) for 15 min, then purified SOS1 ExD(Flag tag, aa 564-1049), BODIPY™ FL GTP (Invitrogen) and MAb (monoclonal antibody) Anti 6HIS-Tb cryptate Gold (Cisbio) were added to the assay wells (Final concentration: 1.5 nM GDP-loaded HIS-KRAS(G12D), 5 nM GDP, 0.5 μM SOS1 ExD, 80 nM BODIPY™ FL GTP, 52.5 ng/mL MAb Anti 6HIS-Tb cryptate Gold) and incubated for 4 hours at 25° C. Wells containing same percent of DMSO served as vehicle control, and wells without KRAS served as low control. TR-FRET signals were read on Tecan Spark multimode microplate reader. The parameters were F486: Excitation 340 nm, Emission 486 nm, Lag time 100 μs, Integration time 200 μs; F515: Excitation 340 nm, Emission 515 nm, Lag time 100 μs, Integration time 200 μs. TR-FRET ratios for each individual wells were calculated by equation: TR-FRET ratio=(Signal F515/Signal F486)*10000. The percent of activation of compounds treated wells were normalized between vehicle control and low control (% Activation=(TR-FRET ratioCompound treated−TR-FRET ratioLow control)/(TR-FRET ratioVehicle control−TR-FRET ratioLow control)*100%). Then the data were analyzed by fitting a 4-parameter logistic model or calculating in Excel to calculate IC50 values.

Compound | IC50 [1] [µM] | IC50 [2] [µM] | IC50 [3] [µM] | IC50 [4] [µM] | IC50 [5] [µM]
C#Cc1cccc2cc(O)cc(-c3c(F)cc4c(N5CC6CCC(C5)N6)nc(OCC5(CN6CCc7sccc7C6)CC5)nc4c3F)c12 [Compound 52] | 0.0324 | 0.271 | 0.093 | 0.286 | 0.00426
C#Cc1cccc2cc(O)cc(-c3c(F)cc4c(N5CC6CCC(C5)N6)nc(OCC5(CN6CCC7(CC6)CC7(F)F)CC5)nc4c3F)c12 [Compound 3] | 0.00676 | 0.0955 | 0.0228 | 0.115 | 0.0371
C#Cc1cccc2cc(O)cc(-c3c(F)cc4c(N5CC6CCC(C5)N6)nc(OCC5(CN6CCC7(CCCCO7)C6)CC5)nc4c3F)c12 (centres unmarked) [Compound 34] | 0.0169 | 0.0389 | 0.208 | 0.0826 | 0.00307
C#Cc1cccc2cc(O)cc(-c3c(F)cc4c(N5CC6CCC(C5)N6)nc(OCC5(CN6C[C@@H]7OCCO[C@@H]7C6)CC5)nc4c3F)c12 [Compound 50] | 0.00349 | 0.00939 | 0.07 | 0.0425 | 0.00139
C#Cc1cccc2cc(O)cc(-c3c(F)cc4c(N5CC6CCC(C5)N6)nc(OCC5(CN6CC(C)(OC)C6)CC5)nc4c3F)c12 [Compound 27] | 0.0293 | 0.0193 | 0.533 | 0.19 | 0.00961
C#Cc1cccc2cc(O)cc(-c3c(F)cc4c(N5CC6CCC(C5)N6)nc(OCC5(CN6C[C@H]7C[C@@H]6CO7)CC5)nc4c3F)c12 [Compound 36] | 0.00871 | 0.00307 | 0.0774 | 0.0351 | 0.0021
C#Cc1cccc2cc(O)cc(-c3c(F)cc4c(N5CC6CCC(C5)N6)nc(OCC5(CN6CC7(CCOC7)C6)CC5)nc4c3F)c12 [Compound 46] | 0.0554 | 0.0231 | 0.488 | 0.242 | 0.00592
C#Cc1cccc2cc(O)cc(-c3c(F)cc4c(N5CC6CCC(C5)N6)nc(OCC5(CN6CCC7(CC6)CC7)CC5)nc4c3F)c12 [Compound 28] | 0.00837 | 0.0262 | 0.0986 | 0.0525 | 0.00176
C#Cc1cccc2cc(O)cc(-c3c(F)cc4c(N5CC6CCC(C5)N6)nc(OCC5(CN6CCC7(CCCO7)C6)CC5)nc4c3F)c12 (centres unmarked) [Compound 47] | 0.029 | 0.0314 | 0.227 | 0.0921 | 0.00258
C#Cc1cccc2cc(O)cc(-c3c(F)cc4c(N5CC6CCC(C5)N6)nc(OCC5(CN6CCC7(CCOC7)C6)CC5)nc4c3F)c12 (centres unmarked) [Compound 45] | 0.0742 | 0.125 | 0.653 | 0.408 | 0.0264
